Test results taken from article PMC3865603 (Cancer chemotherapy and pharmacology, 2011).

Key:
[1] = tested on: patients with advanced solid tumors; assay: Phase I dose escalation: safety, DLT, MTD; assay type: in vivo, human; details: for Dyspnea, grade 3: listed as remotely related to study drug
[2] = Urinary excretion of KOS-1584 and metabolites; assay type: in vivo, human; details: MTD level, 0-24 h urine
tubulin in PBMCs = assay: Microtubule bundle formation; assay type: in vivo, human; details: for mean percentage of MBF: RP2D
[3] = tested on: advanced or metastatic solid tumors; assay: Anti-tumor activity; assay type: in vivo, human
QTcB interval = assay: 12-lead ECG, QTcB interval; assay type: in vivo, human; details: baseline or pre- vs post-infusion ECGs, cycles 1 and 2
plasma proteins = details: cited from earlier work
[4] = tested on: P-gp-overexpressing cell lines; details: cited from earlier work
[5] = tested on: paclitaxel-resistant xenografts; details: cited from earlier work
[6] = mice; cited from earlier work
CYP3A4/5 = details: in vitro; cited from earlier work
[7] = 0.8 mg/m^2 (n = 1), treatment-related
[8] = 1.5 mg/m^2 (n = 4), treatment-related
[9] = 2.5 mg/m^2 (n = 4), treatment-related
[10] = 3.7 mg/m^2 (n = 3), treatment-related
[11] = 5 mg/m^2 (n = 4), treatment-related
[12] = 6.5 mg/m^2 (n = 6), treatment-related
[13] = 8.5 mg/m^2 (n = 3), treatment-related
[14] = 11.3 mg/m^2 (n = 4), treatment-related
[15] = 15 mg/m^2 (n = 4), treatment-related
[16] = 20 mg/m^2 (n = 5), treatment-related
[17] = 27 mg/m^2 (n = 4), treatment-related
[18] = 36 mg/m^2 (n = 16), treatment-related
[19] = 42 mg/m^2 (n = 6), treatment-related
[20] = 48 mg/m^2 (n = 2), treatment-related

C/C1=C/C[C@@H](/C(C)=C/c2csc(C)n2)OC(=O)C[C@H](O)C(C)(C)C(=O)[C@H](C)[C@@H](O)[C@@H](C)/C=C/C1 [KOS-1584, (E)-9,10-didehydroepothilone D]
Dyspnea, grade 3 ([1]; 0.8 mg/m^2 (n = 1)): 1 no. of patients
Anemia, grade 1/2 [1, 7]: 1 no. of patients
Anorexia, grade 1/2 [1, 7]: 1 no. of patients
Asthenia/fatigue, grade 3 [1, 7]: 1 no. of patients
Constipation, grade 1/2 [1, 7]: 1 no. of patients
Diarrhea, grade 1/2 [1, 7]: 1 no. of patients
Nausea/vomiting, grade 1/2 [1, 7]: 1 no. of patients
Anorexia, grade 1/2 [1, 8]: 2 no. of patients
Arthralgia/myalgia, grade 1/2 [1, 8]: 1 no. of patients
Back pain, grade 1/2 [1, 8]: 2 no. of patients
Diarrhea, grade 1/2 [1, 8]: 2 no. of patients
Dyspnea, grade 1/2 [1, 8]: 1 no. of patients
Lymphopenia, grade 1/2 [1, 8]: 1 no. of patients
Nausea/vomiting, grade 1/2 [1, 8]: 1 no. of patients
Peripheral neuropathy, grade 1/2 [1, 8]: 2 no. of patients
Pleural effusion, grade 1/2 [1, 8]: 1 no. of patients
Abdominal pain, grade 1/2 [1, 9]: 2 no. of patients
Anorexia, grade 1/2 [1, 9]: 2 no. of patients
Asthenia/fatigue, grade 1/2 [1, 9]: 4 no. of patients
Constipation, grade 1/2 [1, 9]: 2 no. of patients
Diarrhea, grade 1/2 [1, 9]: 2 no. of patients
Dry skin/rash, grade 1/2 [1, 9]: 1 no. of patients
Nausea/vomiting, grade 1/2 [1, 9]: 2 no. of patients
Peripheral neuropathy, grade 1/2 [1, 9]: 1 no. of patients
Abdominal pain, grade 1/2 [1, 10]: 1 no. of patients
Anemia, grade 1/2 [1, 10]: 1 no. of patients
Arthralgia/myalgia, grade 1/2 [1, 10]: 1 no. of patients
Asthenia/fatigue, grade 1/2 [1, 10]: 1 no. of patients
Diarrhea, grade 1/2 [1, 10]: 2 no. of patients
Dizziness, grade 1/2 [1, 10]: 1 no. of patients
Nausea/vomiting, grade 1/2 [1, 10]: 1 no. of patients
Peripheral neuropathy, grade 1/2 [1, 10]: 1 no. of patients
Anorexia, grade 1/2 [1, 11]: 1 no. of patients
Dizziness, grade 1/2 [1, 11]: 1 no. of patients
Edema, grade 1/2 [1, 11]: 1 no. of patients
Nausea/vomiting, grade 1/2 [1, 11]: 1 no. of patients
Dyspnea, grade 3 ([1]; 6.5 mg/m^2 (n = 6)): 1 no. of patients
Anemia, grade 1/2 [1, 12]: 1 no. of patients
Asthenia/fatigue, grade 1/2 [1, 12]: 2 no. of patients
Diarrhea, grade 1/2 [1, 12]: 1 no. of patients
Dizziness, grade 1/2 [1, 12]: 2 no. of patients
Nausea/vomiting, grade 1/2 [1, 12]: 1 no. of patients
Pleural effusion, grade 1/2 [1, 12]: 1 no. of patients
Asthenia/fatigue, grade 1/2 [1, 13]: 1 no. of patients
Edema, grade 1/2 [1, 13]: 1 no. of patients
Peripheral neuropathy, grade 1/2 [1, 13]: 1 no. of patients
Anorexia, grade 1/2 [1, 14]: 1 no. of patients
Asthenia/fatigue, grade 1/2 [1, 14]: 1 no. of patients
Asthenia/fatigue, grade 3 [1, 14]: 1 no. of patients
Constipation, grade 1/2 [1, 14]: 1 no. of patients
Headache, grade 1/2 [1, 14]: 1 no. of patients
Nausea/vomiting, grade 1/2 [1, 14]: 1 no. of patients
Abdominal pain, grade 3 [1, 15]: 1 no. of patients
Anemia, grade 1/2 [1, 15]: 1 no. of patients
Asthenia/fatigue, grade 3 [1, 15]: 1 no. of patients
Diarrhea, grade 1/2 [1, 15]: 1 no. of patients
Edema, grade 1/2 [1, 15]: 1 no. of patients
Nausea/vomiting, grade 1/2 [1, 15]: 2 no. of patients
Peripheral neuropathy, grade 1/2 [1, 15]: 1 no. of patients
Alopecia, grade 1/2 [1, 16]: 1 no. of patients
Anemia, grade 1/2 [1, 16]: 1 no. of patients
Anorexia, grade 1/2 [1, 16]: 1 no. of patients
Asthenia/fatigue, grade 1/2 [1, 16]: 1 no. of patients
Constipation, grade 1/2 [1, 16]: 1 no. of patients
Diarrhea, grade 1/2 [1, 16]: 1 no. of patients
Lymphopenia, grade 1/2 [1, 16]: 1 no. of patients
Nausea/vomiting, grade 1/2 [1, 16]: 2 no. of patients
Peripheral neuropathy, grade 1/2 [1, 16]: 2 no. of patients
Dyspnea, grade 3 ([1]; 27 mg/m^2 (n = 4)): 1 no. of patients
Alopecia, grade 1/2 [1, 17]: 1 no. of patients
Anemia, grade 1/2 [1, 17]: 2 no. of patients
Anorexia, grade 1/2 [1, 17]: 1 no. of patients
Asthenia/fatigue, grade 1/2 [1, 17]: 4 no. of patients
Back pain, grade 1/2 [1, 17]: 1 no. of patients
Chest pain, grade 1/2 [1, 17]: 1 no. of patients
Constipation, grade 1/2 [1, 17]: 1 no. of patients
Diarrhea, grade 1/2 [1, 17]: 1 no. of patients
Dizziness, grade 1/2 [1, 17]: 1 no. of patients
Dry skin/rash, grade 1/2 [1, 17]: 1 no. of patients
Headache, grade 1/2 [1, 17]: 3 no. of patients
Nausea/vomiting, grade 1/2 [1, 17]: 1 no. of patients
Peripheral neuropathy, grade 1/2 [1, 17]: 4 no. of patients
incidence of diarrhea at RP2D, first figure ([1]; 36 mg/m^2): 31%
incidence of diarrhea at RP2D, second figure ([1]; 36 mg/m^2): 6%
Alopecia, grade 1/2 [1, 18]: 4 no. of patients
Anemia, grade 1/2 [1, 18]: 2 no. of patients
Anorexia, grade 1/2 [1, 18]: 3 no. of patients
Arthralgia/myalgia, grade 3 [1, 18]: 1 no. of patients
Asthenia/fatigue, grade 3 [1, 18]: 1 no. of patients
Back pain, grade 1/2 [1, 18]: 1 no. of patients
Back pain, grade 3 [1, 18]: 1 no. of patients
Chest pain, grade 1/2 [1, 18]: 2 no. of patients
Chest pain, grade 3 [1, 18]: 1 no. of patients
Constipation, grade 1/2 [1, 18]: 1 no. of patients
Diarrhea, grade 1/2 [1, 18]: 4 no. of patients
Diarrhea, grade 3 [1, 18]: 1 no. of patients
Dry skin/rash, grade 1/2 [1, 18]: 1 no. of patients
Edema, grade 1/2 [1, 18]: 2 no. of patients
Headache, grade 1/2 [1, 18]: 1 no. of patients
Peripheral neuropathy, grade 1/2 [1, 18]: 11 no. of patients
Thrombocytopenia, grade 1/2 [1, 18]: 1 no. of patients
Abdominal pain, grade 3 [1, 19]: 2 no. of patients
Alopecia, grade 1/2 [1, 19]: 2 no. of patients
Anemia, grade 3 [1, 19]: 1 no. of patients
Anorexia, grade 1/2 [1, 19]: 2 no. of patients
Asthenia/fatigue, grade 1/2 [1, 19]: 3 no. of patients
Asthenia/fatigue, grade 3 [1, 19]: 1 no. of patients
Constipation, grade 3 [1, 19]: 1 no. of patients
Diarrhea, grade 1/2 [1, 19]: 3 no. of patients
Diarrhea, grade 3 [1, 19]: 2 no. of patients
Dizziness, grade 1/2 [1, 19]: 2 no. of patients
Lymphopenia, grade 3 [1, 19]: 1 no. of patients
Nausea/vomiting, grade 1/2 [1, 19]: 3 no. of patients
Neutropenia, grade 3 [1, 19]: 1 no. of patients
Peripheral neuropathy, grade 1/2 [1, 19]: 4 no. of patients
Peripheral neuropathy, grade 3 [1, 19]: 2 no. of patients
Thrombocytopenia, grade 1/2 [1, 19]: 1 no. of patients
Anorexia, grade 1/2 [1, 20]: 1 no. of patients
Arthralgia/myalgia, grade 3 [1, 20]: 1 no. of patients
Asthenia/fatigue, grade 1/2 [1, 20]: 1 no. of patients
Back pain, grade 3 [1, 20]: 1 no. of patients
Nausea/vomiting, grade 3 [1, 20]: 1 no. of patients
Peripheral neuropathy, grade 3 [1, 20]: 1 no. of patients
frequency of all-grade peripheral neuropathy ([1]; RP2D 36 mg/m^2): 69%
frequency of grade ≥3 peripheral neuropathy ([1]; RP2D 36 mg/m^2): 0%
patients who discontinued therapy due to adverse effects ([1]; all cohorts): Five
patients with positive FOBT or hematochezia ([1]; all cohorts): Five
myelosuppression ([1]; heavily pretreated patients): very low incidence of myelosuppression
recommended phase II dose (RP2D) ([1]; iv every 3 weeks): 36 mg/m^2
maximum tolerated dose (MTD) ([1]; iv over 3 h every 3 weeks): 36 mg/m^2
hypersensitivity reactions ([1]; no routine premedication): not associated with any hypersensitivity reactions
Urinary excretion of unchanged KOS-1584 [2]: < 10 % of drug-related materials
mean percentage of MBF (tubulin in PBMCs; 1 h after infusion): 50%
mean percentage of MBF (tubulin in PBMCs; 24 h after infusion): 26%
E0 of MBF (tubulin in PBMCs; sigmoidal maximum effect model): 3.69%
EC50 of plasma concentration for MBF (tubulin in PBMCs; sigmoidal maximum effect model): 0.0241 mg/L
Emax of MBF (tubulin in PBMCs; sigmoidal maximum effect model): 52.7%
patients with durable SD of ≥3 months ([3]; 66 patients): 13 patients
patients with objective partial response (PR) ([3]; 66 patients, 0.8-48 mg/m^2): Two
disease control rate (CR + PR + SD) ([3]; all patients): 39%
effect on QTcB interval (QTcB interval): did not show any effects
bound to plasma proteins (plasma proteins): 97%
potency relative to paclitaxel [4]: more potent than paclitaxel
anti-tumor activity [5]: anti-tumor activity has been demonstrated
penetration of the BBB [6]: did penetrate the BBB
inhibition of CYP3A4/5 (CYP3A4/5): potent inhibitor
